Measurements from ChEMBL document CHEMBL5584246, “Novel dihydropyrimidines as promising EGFR & HER2 inhibitors: Insights from experimental and computational studies” (Eur J Med Chem, 2024).

How the values were obtained:
[1] = Cytotoxicity against African green monkey Vero cells assessed as inhibition of cell growth measured after 3 days by MTT assay; type: toxicity, cell-based; conditions: African green monkey (Chlorocebus sabaeus)
MCF7 = assay: Cytotoxicity against human MCF7 cells assessed as inhibition of cell growth measured after 3 days by MTT assay; type: functional, cell-based; conditions: MCF7, 72 h
[2] = Inhibition of HER2 expression in human MCF7 cells assessed as positive expression region (M2) at 50 nM incubated for 24 hrs by flow cytometry analysis (reference value: 99.09%); type: functional
[3] = Inhibition of EGFR expression in human MCF7 cells assessed as positive expression region (M2) at 500 nM incubated for 24 hrs by flow cytometry analysis (reference value: 99.36%); type: functional
[4] = biological target: Epidermal growth factor receptor (Homo sapiens, UniProt P00533); assay: Inhibition of wild type EGFR (unknown origin) incubated for 40 mins in presence of ATP by kinase glo max assay
[5] = Inhibition of EGFR expression in human MCF7 cells assessed as positive expression region (M2) at 1000 nM incubated for 24 hrs by flow cytometry analysis (reference value: 99.36%); type: functional
[6] = Inhibition of EGFR expression in human MCF7 cells assessed as positive expression region (M2) at 50 nM incubated for 24 hrs by flow cytometry analysis (reference value: 99.36%); type: functional
[7] = Inhibition of HER2 expression in human MCF7 cells assessed as negative expression region (M1) at 25 nM incubated for 24 hrs by flow cytometry analysis (reference value: 0.98%); type: functional
[8] = Inhibition of HER2 expression in human MCF7 cells assessed as negative expression region (M1) at 500 nM incubated for 24 hrs by flow cytometry analysis (reference value: 0.98%); type: functional
[9] = Inhibition of EGFR expression in human MCF7 cells assessed as negative expression region (M1) at 500 nM incubated for 24 hrs by flow cytometry analysis (reference value: 0.66%); type: functional
[10] = Inhibition of HER2 expression in human MCF7 cells assessed as positive expression region (M2) at 25 nM incubated for 24 hrs by flow cytometry analysis (reference value: 99.09%); type: functional
[11] = Inhibition of EGFR expression in human MCF7 cells assessed as negative expression region (M1) at 50 nM incubated for 24 hrs by flow cytometry analysis (reference value: 0.66%); type: functional
[12] = Inhibition of HER2 expression in human MCF7 cells assessed as negative expression region (M1) at 100 nM incubated for 24 hrs by flow cytometry analysis (reference value: 0.98%); type: functional
[13] = Inhibition of HER2 expression in human MCF7 cells assessed as positive expression region (M2) at 1000 nM incubated for 24 hrs by flow cytometry analysis (reference value: 99.09%); type: functional
[14] = Inhibition of EGFR expression in human MCF7 cells assessed as negative expression region (M1) at 100 nM incubated for 24 hrs by flow cytometry analysis (reference value: 0.66%); type: functional
[15] = Inhibition of EGFR expression in human MCF7 cells assessed as positive expression region (M2) at 25 nM incubated for 24 hrs by flow cytometry analysis (reference value: 99.36%); type: functional
[16] = Inhibition of EGFR expression in human MCF7 cells assessed as negative expression region (M1) at 1000 nM incubated for 24 hrs by flow cytometry analysis (reference value: 0.66%); type: functional
[17] = Inhibition of HER2 expression in human MCF7 cells assessed as negative expression region (M1) at 1000 nM incubated for 24 hrs by flow cytometry analysis (reference value: 0.98%); type: functional
[18] = Inhibition of HER2 expression in human MCF7 cells assessed as negative expression region (M1) at 50 nM incubated for 24 hrs by flow cytometry analysis (reference value: 0.98%); type: functional
[19] = Inhibition of HER2 expression in human MCF7 cells assessed as positive expression region (M2) at 500 nM incubated for 24 hrs by flow cytometry analysis (reference value: 99.09%); type: functional
[20] = Inhibition of EGFR expression in human MCF7 cells assessed as negative expression region (M1) at 25 nM incubated for 24 hrs by flow cytometry analysis (reference value: 0.66%); type: functional
[21] = Inhibition of HER2 expression in human MCF7 cells assessed as positive expression region (M2) at 100 nM incubated for 24 hrs by flow cytometry analysis (reference value: 99.09%); type: functional
[22] = Inhibition of EGFR expression in human MCF7 cells assessed as positive expression region (M2) at 100 nM incubated for 24 hrs by flow cytometry analysis (reference value: 99.36%); type: functional

Epidermal growth factor receptor, sequence (P00533 whole entry): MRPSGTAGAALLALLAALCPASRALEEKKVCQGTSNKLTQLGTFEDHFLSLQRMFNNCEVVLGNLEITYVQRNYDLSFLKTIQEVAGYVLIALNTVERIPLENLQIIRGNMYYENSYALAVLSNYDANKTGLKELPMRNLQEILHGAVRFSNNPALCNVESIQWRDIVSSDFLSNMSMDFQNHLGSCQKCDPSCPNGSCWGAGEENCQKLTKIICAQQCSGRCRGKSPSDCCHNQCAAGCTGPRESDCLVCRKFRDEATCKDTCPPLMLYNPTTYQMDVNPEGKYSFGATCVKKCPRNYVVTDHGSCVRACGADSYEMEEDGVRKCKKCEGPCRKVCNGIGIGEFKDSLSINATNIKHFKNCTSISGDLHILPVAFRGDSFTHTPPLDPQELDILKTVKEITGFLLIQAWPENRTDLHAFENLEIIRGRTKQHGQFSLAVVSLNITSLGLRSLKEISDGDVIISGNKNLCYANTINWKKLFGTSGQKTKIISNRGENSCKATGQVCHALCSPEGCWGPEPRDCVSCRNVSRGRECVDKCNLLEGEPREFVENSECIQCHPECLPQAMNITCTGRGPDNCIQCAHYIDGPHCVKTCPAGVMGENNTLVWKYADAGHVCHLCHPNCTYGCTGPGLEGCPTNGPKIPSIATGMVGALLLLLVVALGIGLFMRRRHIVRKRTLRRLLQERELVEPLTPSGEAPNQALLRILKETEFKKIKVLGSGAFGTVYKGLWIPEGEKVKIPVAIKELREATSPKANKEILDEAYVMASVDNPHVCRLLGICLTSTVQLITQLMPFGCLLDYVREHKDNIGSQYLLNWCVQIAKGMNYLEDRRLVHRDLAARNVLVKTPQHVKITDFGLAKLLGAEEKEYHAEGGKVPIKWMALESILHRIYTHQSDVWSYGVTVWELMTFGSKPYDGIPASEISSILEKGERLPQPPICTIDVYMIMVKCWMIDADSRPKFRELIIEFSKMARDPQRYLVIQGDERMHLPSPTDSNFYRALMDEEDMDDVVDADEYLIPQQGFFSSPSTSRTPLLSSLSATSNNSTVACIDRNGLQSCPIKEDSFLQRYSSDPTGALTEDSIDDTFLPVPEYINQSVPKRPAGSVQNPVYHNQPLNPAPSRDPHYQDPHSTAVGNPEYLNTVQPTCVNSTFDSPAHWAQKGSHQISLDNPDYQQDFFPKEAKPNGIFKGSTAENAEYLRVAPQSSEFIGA

SMILES: COc1ccc(NC(=O)C2=C(C)NC(=O)NC2c2c[nH]c3ccccc23)c(OC)c1 (centres undefined)
- IC50 at 3 days [1]: 42.6 µM
- IC50 (MCF7): 20.2 µM

SMILES: COc1ccc(NC(=O)C2=C(C)NC(=S)NC2c2ccc(O)cc2)c(OC)c1 (centres undefined)
- IC50 at 3 days [1]: 40 µM
- IC50 (MCF7): 28.6 µM

SMILES: COc1ccc(NC(=O)C2=C(C)NC(=O)NC2c2cccc(O)c2)c(OC)c1 (centres undefined)
- IC50 at 3 days [1]: 55.7 µM
- IC50 (MCF7): 30.4 µM

SMILES: COc1ccc(NC(=O)C2=C(C)NC(=S)NC2c2ccc(N(C)C)cc2)c(OC)c1 (centres undefined)
- IC50 at 3 days [1]: 53.1 µM
- IC50 (MCF7): 25.1 µM

SMILES: COc1ccc(NC(=O)C2=C(C)NC(=O)NC2c2ccc(O)cc2)c(OC)c1 (centres undefined)
- IC50 at 3 days [1]: 55.2 µM
- IC50 (MCF7): 29.3 µM

SMILES: COc1ccc(NC(=O)C2=C(C)NC(=S)NC2c2c[nH]c3ccccc23)c(OC)c1 (centres undefined)
- IC50 at 3 days [1]: 50.3 µM
- IC50 (MCF7): 29.4 µM

SMILES: COc1ccc(NC(=O)C2=C(C)NC(=S)NC2c2cccc(O)c2)c(OC)c1 (centres undefined)
- IC50 at 3 days [1]: 69.2 µM
- IC50 (MCF7): 34.8 µM

SMILES: COc1ccc(NC(=O)C2=C(C)NC(=S)NC2c2ccccc2)c(OC)c1 (centres undefined)
- IC50 at 3 days [1]: 53.4 µM
- IC50 (MCF7): 45.3 µM

SMILES: COc1ccc(NC(=O)C2=C(C)NC(=O)NC2c2ccc(Cl)cc2Cl)c(OC)c1 (centres undefined)
- IC50 at 3 days [1]: 63.5 µM
- IC50 (MCF7): 32.4 µM

SMILES: COc1ccc(C2NC(=S)NC(C)=C2C(=O)Nc2ccc(OC)cc2OC)cc1 (centres undefined)
- IC50 at 3 days [1]: 32.8 µM
- IC50 (MCF7): 28.1 µM

SMILES: COc1ccc(NC(=O)C2=C(C)NC(=O)NC2c2ccc(C)cc2)c(OC)c1 (centres undefined)
- IC50 at 3 days [1]: 60 µM
- IC50 (MCF7): 33.5 µM

SMILES: COc1ccc(NC(=O)C2=C(C)NC(=S)NC2/C=C\c2ccccc2)c(OC)c1 (centres undefined)
- IC50 at 3 days [1]: 47.3 µM
- IC50 (MCF7): 24.5 µM

SMILES: CCOc1cc(C2NC(=S)NC(C)=C2C(=O)Nc2ccc(OC)cc2OC)ccc1O (centres undefined)
- IC50 at 3 days [1]: 57.4 µM
- IC50 (MCF7): 25.3 µM

SMILES: COc1ccc(NC(=O)C2=C(C)NC(=S)NC2c2ccc(C)cc2)c(OC)c1 (centres undefined)
- IC50 at 3 days [1]: 53.6 µM
- IC50 (MCF7): 38.2 µM

SMILES: COc1ccc(NC(=O)C2=C(C)NC(=O)NC2)c(OC)c1
- IC50 at 3 days [1]: 87.2 µM
- IC50 (MCF7): 81.5 µM

SMILES: COc1ccc(NC(=O)C2=C(C)NC(=O)NC2c2cccc(Cl)c2)c(OC)c1 (centres undefined)
- IC50 at 3 days [1]: 73.4 µM
- IC50 (MCF7): 38.2 µM

SMILES: COc1ccc(NC(=O)C2=C(C)NC(=O)NC2c2ccc(OC)c(OC)c2)c(OC)c1 (centres undefined)
- inhibition at 0.05 µM [2]: 36.8%
- inhibition at 0.5 µM [3]: 5.73%
- IC50 at 3 days [1]: 30.1 µM
- IC50 [4]: 69.8 nM
- inhibition at 1 µM [5]: 3.42%
- inhibition at 0.05 µM [6]: 60%
- inhibition at 0.025 µM [7]: 32.7%
- inhibition at 0.5 µM [8]: 89.9%
- inhibition at 0.5 µM [9]: 94.4%
- inhibition at 0.025 µM [10]: 67.9%
- inhibition at 0.05 µM [11]: 40.2%
- inhibition at 0.1 µM [12]: 79.3%
- inhibition at 1 µM [13]: 6.78%
- inhibition at 0.1 µM [14]: 68.3%
- inhibition at 0.025 µM [15]: 82.2%
- inhibition at 1 µM [16]: 96.7%
- inhibition at 1 µM [17]: 93.4%
- IC50 (MCF7): 14.2 µM
- inhibition at 0.05 µM [18]: 63.8%
- inhibition at 0.5 µM [19]: 10.3%
- inhibition at 0.025 µM [20]: 18.1%
- inhibition at 0.1 µM [21]: 21%
- inhibition at 0.1 µM [22]: 32.5%

SMILES: COc1ccc(NC(=O)C2=C(C)NC(=S)NC2c2ccccc2O)c(OC)c1 (centres undefined)
- IC50 at 3 days [1]: 60.4 µM
- IC50 (MCF7): 32.1 µM

SMILES: COc1ccc(NC(=O)C2=C(C)NC(=O)NC2c2ccc(N(C)C)cc2)c(OC)c1 (centres undefined)
- IC50 at 3 days [1]: 53.1 µM
- IC50 (MCF7): 19.5 µM
